Experiments:
[1] = Enzymatic bioconversion in mouse primary astrocyte–microglia homogenate; format: in vitro ADME; conditions: after 5 h incubation, 100 μM prodrug, 37 °C, mean ± SD, n = 3
Method: The rates of bioactivation of the prodrugs 1–8 in mouse and human liver S9 fractions, as well as in mouse primary astrocyte–microglia homogenate, were determined at +37 °C. The incubation mixtures were prepared by mixing liver S9 subcellular fraction or brain cell homogenate (final protein concentration 1.0 mg/mL) with isotonic Tris–HCl buffer (pH 7.4) and 10 mM prodrug stock solution in DMSO (the initial concentration of prodrugs was 100 μM and the DMSO concentration was […]). The mixture was incubated for 5 h, and the samples ([…]) were withdrawn at appropriate intervals. The enzymatic reaction was terminated by the addition of ice-cold acetonitrile ([…]), and the samples were centrifuged for 5 min at 12 000 rpm at room temperature and kept on ice until the supernatants were analyzed by the HPLC method described below. In blank reactions, the S9 fractions were replaced with the same volume of buffer. The pseudo-first-order half-lives (t1/2) for the rates of bioconversion of the prodrugs were calculated from the slope of the linear portion of the plotted logarithm of the remaining prodrug concentration versus time. The rates of bioactivation of prodrugs 1–8 in human plasma and mouse serum were determined at 37 °C as above by adding 10 mM stock solution of the prodrug to plasma/serum in a ratio of 1:10 and analyzed similarly to the samples from S9 fractions.
The amount of prodrug 1–8 was determined by the HPLC system, which consisted of an Agilent 1100 binary pump (Agilent Technologies Inc., Wilmington, DE), an 1100 micro vacuum degasser, an HP 1050 Autosampler, and an HP 1050 variable wavelength detector, operated at 230–240 nm. The chromatographic separations were achieved on an Agilent Zorbax SB-C18 analytical column (4.4 mm × 150 mm, 5 μm) (Agilent Technologies Inc., Wilmington, DE) by using isocratic elution of water containing 0.1% formic acid (pH ca. 3.0) and acetonitrile containing 0.1% formic acid with ratios of 50:50, 30:70, 40:60, 50:50, 50:50, 40:60, 40:60, and 30:70 (v/v), respectively, for prodrug 1–8. […] The lower limit of quantification for prodrugs 1–8 was 0.20 μM. These HPLC methods were also accurate, precise, and selective over the range of 0.5–20 μM.

[2] = tested on: human U-87MG glioma cells; assay: Concentration-dependent cellular uptake into human U-87MG glioma cells; format: cell-based; conditions: for Km / Vmax, cellular uptake, U-87MG: 5–400 μM, 30 min, 37 °C
Method: U-87MG (ATCC, HTB-14, unknown origin) was purchased from Lonza (Basel, Switzerland). The cells were cultured in standard conditions (37 °C, 5% CO2) using Dulbecco’s modified Eagle’s medium (DMEM) supplemented with L-glutamine (2.0 mM), heat-inactivated fetal bovine serum (FBS) (10%), penicillin (50 U/mL), and streptomycin (50 μg/mL). U-87MG cells (passages 8–25) were seeded at a density of 1 × 10^5 cells/well onto 24-well plates and used for the uptake experiments 1 day after seeding. All of the studies were carried out as three biological replicates from the same cell passage.
After removal of the culture medium, U-87MG human glioma cells and mouse primary astrocytes were carefully washed with prewarmed Hank’s balanced salt solution (HBSS) containing 125.0 mM NaCl (or choline chloride in Na^+ free conditions), 4.8 mM KCl, 1.2 mM MgSO4, 1.2 mM KH2PO4, 1.3 mM CaCl2, 5.6 mM glucose, and 25.0 mM 4-(2-hydroxyethyl)piperazine-1-ethanesulfonic acid (HEPES) with the pH adjusted to either 7.4 or pH 8.5 with 1 M NaOH (or KOH in sodium-free conditions). In the experiments at lower pH (4.5–6.5), 25.0 mM HEPES was replaced by 2-(N-morpholino) ethanesulfonic acid (MES), and the pH was adjusted to 4.5, 5.5, and 6.5 by 1.0 M NaOH. Preincubation was done with 500 μL of prewarmed HBSS at 37 °C for 10 min before adding the substrate for the uptake experiments. The functionality of OATP1C1 in human glioma U-87MG cells was studied with a known substrate (L-thyroxine, T4) and of oatp1a4, 1a5, and 1a6 in mouse primary astrocytes with [6,7-^3H(N)]-estrone-3-sulfate (ES) by incubating the uptake solution (250 μL in HBSS) consisting of 5–400 μM of the substrate at 37 °C for 30 min. After incubation, the uptake was stopped by adding 500 μL of ice-cold HBSS, and the cells were washed two times with ice-cold HBSS (2 × 500 μL). The cells were then lysed with 500 μL of 0.1 M NaOH (60 min), the lysate was neutralized, and the protein was precipitated with acidic acetonitrile (ACN with 4.8% formic acid). The supernatants were analyzed by the high-performance liquid chromatography (HPLC) methods described below (T4) or by using a liquid scintillation counter (MicroBeta2 counter, PerkinElmer, Waltham, MA) (ES). The concentrations of T4 and ES were calculated from the spiked standard curve and normalized with the protein concentrations. The protein concentrations on each plate were determined as a mean of three samples by Bio-Rad Protein Assay, based on the Bradford dye-binding method, using bovine serum albumin (BSA) as a standard protein and measuring the absorbance (595 nm) by a multiplate reader (EnVision, PerkinElmer, Inc., Waltham, MA). The OATP-mediated uptake was confirmed by changing the pH of the uptake buffer in the absence of sodium ions, and in the case of OATP1C1 in human U-87MG cells, the uptake of T4 (100 μM) was studied in the presence of competing OATP1C1-ligands, diclofenac and flufenamic acid (100 μM), and in the case of oatp1a4/1a5/1a6 in mouse primary astrocytes, the uptake of ES (100 μM) was studied in the presence of competing OATO1A2-ligand, naringin (100 μM).
Cellular uptake of prodrugs 1–8 was studied as described for L-thyroxine above by adding compounds at a concentration of 5–400 μM in prewarmed HBSS buffer (250 μL) on the cell layer and incubating at 37 °C for 30 min (uptake was linear with all compounds up to 30 min). Subsequently, the cells were washed three times with ice-cold HBSS and lysed with 500 μL of 0.1 M NaOH (60 min). The lysate was neutralized; the proteins were precipitated with acidic ACN (containing 4.8% formic acid), and the supernatants were analyzed by the (HPLC) methods described below. The concentrations of each prodrug normalized to protein concentration were calculated from the standard curve prepared by spiking known concentrations of compounds into ACN-precipitated cell lysate. […]

## CC(C(=O)Oc1c(I)cc(Oc2c(I)cc(C[C@H](N)C(=O)O)cc2I)cc1I)c1cccc(C(=O)c2ccccc2)c1 (mixture of isomers) [Prodrug 2, (2S)-2-Amino-3-(4-(4-((2-(3-benzoylphenyl)propanoyl)oxy)-3,5-diiodophenoxy)-3,5-diiodophenyl)propanoic acid]
[1]
  Enzymatic stability, remaining percentage, mouse brain cell homogenate: 96.01 ± 3.99%
[2]
  Km: 118 ± 27 µM
  Vmax, cellular uptake, U-87MG: 13 nmol/min/mg
[2]; listed as PD2
  Vmax, cellular uptake, U-87MG: 13.0 ± 1.3 nmol/min/mg

## COc1ccc2cc([C@H](C)C(=O)Oc3c(I)cc(C[C@H](N)C(=O)O)cc3I)ccc2c1 [Prodrug 5, (S)-2-Amino-3-(3,5-diiodo-4-(((S)-2-(6-methoxynaphthalen-2-yl)propanoyl)oxy)phenyl)propanoic acid]
[1]
  Enzymatic stability, remaining percentage, mouse brain cell homogenate: 92.98 ± 6.14%
[2]
  Km: 138 ± 79 µM
  Vmax, cellular uptake, U-87MG: 9.0 nmol/min/mg
[2]; listed as PD5
  Vmax, cellular uptake, U-87MG: 9.0 ± 3.7 nmol/min/mg

## N[C@@H](Cc1cc(I)c(Oc2cc(I)c(OC(=O)c3ccccc3O)c(I)c2)c(I)c1)C(=O)O [Prodrug 4, (S)-2-Amino-3-(4-(4-((2-hydroxybenzoyl)oxy)-3,5-diiodophenoxy)-3,5-diiodophenyl)propanoic acid]
[1]
  Enzymatic stability, remaining percentage, mouse brain cell homogenate: 91.38 ± 5.34%
[2]
  Km: 106 ± 32 µM
  Vmax, cellular uptake, U-87MG: 9.0 ± 1.1 nmol/min/mg
[2]; at 200 μM concentration, U-87MG cells
  Transport capacity relative to prodrug 3: ca. 3.5 times
[2]; from Km values, U-87MG cells
  Affinity relative to corresponding DIT prodrug 3: 5 times

## COc1ccc2cc([C@H](C)C(=O)Oc3c(I)cc(Oc4c(I)cc(C[C@H](N)C(=O)O)cc4I)cc3I)ccc2c1 [Prodrug 6, (S)-2-Amino-3-(4-(3,5-diiodo-4-(((S)-2-(6-methoxynaphthalen-2-yl)propanoyl)oxy)phenoxy)-3,5-diiodophenyl)propanoic acid]
[1]
  Enzymatic stability, remaining percentage, mouse brain cell homogenate: 95.18 ± 4.82%
[2]
  Km: 138 ± 36 µM
  Vmax, cellular uptake, U-87MG: 13.5 nmol/min/mg
[2]; listed as PD6
  Vmax, cellular uptake, U-87MG: 13.5 ± 1.6 nmol/min/mg

## N[C@@H](Cc1cc(I)c(OC(=O)c2ccccc2O)c(I)c1)C(=O)O [Prodrug 3, (S)-2-Amino-3-(4-((2-hydroxybenzoyl)oxy)-3,5-diiodophenyl)propanoic acid]
[1]
  Enzymatic stability, remaining percentage, mouse brain cell homogenate: 95.26 ± 4.74%
[2]
  Km: 539 ± 97 µM
  Vmax, cellular uptake, U-87MG: 9.9 ± 1.2 nmol/min/mg

## CC(C(=O)Oc1c(I)cc(C[C@H](N)C(=O)O)cc1I)c1ccc(-c2ccccc2)c(F)c1 (mixture of isomers) [Prodrug 7, (2S)-2-Amino-3-(4-((2-(2-fluoro-[1,1′-biphenyl]-4-yl)propanoyl)oxy)-3,5-diiodophenyl)propanoic acid]
[1]
  Enzymatic stability, remaining percentage, mouse brain cell homogenate: 92.68 ± 7.32%
[2]
  Km: 381 ± 73 µM
  Vmax, cellular uptake, U-87MG: 19.8 ± 2.3 nmol/min/mg

## CC(C(=O)Oc1c(I)cc(Oc2c(I)cc(C[C@H](N)C(=O)O)cc2I)cc1I)c1ccc(-c2ccccc2)c(F)c1 (mixture of isomers) [Prodrug 8, (2S)-2-Amino-3-(4-(4-((2-(2-fluoro-[1,1′-biphenyl]-4-yl)propanoyl)oxy)-3,5-diiodophenoxy)-3,5-diiodophenyl)propanoic acid]
[1]
  Enzymatic stability, remaining percentage, mouse brain cell homogenate: 97.94 ± 2.06%
[2]
  Km: 221 ± 48 µM
  Vmax, cellular uptake, U-87MG: 21.5 ± 2.4 nmol/min/mg
